What was measured:
Plutella xylostella = test: Insecticidal test against Plutella xylostella; details: in Brassica rapa, 144 h, read-out: corrected mortality, rating of assessment
Text: Insecticidal Test Against Plutella xylostella
Six days after the immersion in the drug solution, the number of surviving insects was examined. […] In triplicate using 10 per plot.

[1] = system: L-1 stage larvae of Dirofilaria immitis; test: Evaluation test of influence on the movement of Dirofilaria immitis larvae; details: 72 h, read-out: corrected movement inhibition rate
[2] = system: Frankliniella occidentalis; test: Insecticidal test against Frankliniella occidentalis; details: in Phaseolus vulgaris, 96 h, read-out: corrected mortality, rating of assessment
Text: Insecticidal Test Against Frankliniella occidentalis
Female adults of Frankliniella occidentalis were inoculated onto Phaseolus vulgaris leaf pieces, and after allowing them to lay eggs for one day, the female adults were removed. […] Four days after the treatment, the number of surviving larvae of this species was examined. […] In duplicate.

| SMILES | mortality at 500 ppm (Plutella xylostella) | inhibition at 50 ppm [1] | mortality at 500 ppm [2] |
| --- | --- | --- | --- |
| CC(C)(C)OC(=O)N1CC(=O)C(C(=O)Nc2ccc(F)cc2)=C(O)C1 [Compound 1-36, tertiary-butyl 4-((4-fluorophenyl)carbamoyl)-5-hydroxy-3-oxo-3,6-dihydropyridine-1 (2H)-carboxylate] | 100% | ≥ 50% | 100% |
| O=C1CN(c2ncc(Br)cn2)CC(O)=C1C(=O)Nc1ccc(F)cc1 [Compound 1-65, 1-(5-bromopyrimidin-2-yl)-N-(4-fluorophenyl)-5-hydroxy-3-oxo-1,2,3,6-tetrahydropyridine-4-carboxamide] | 100% |  | 100% |
| CC(C)(C)OC(=O)N1CC(=O)C(C(=S)Nc2ccc(Cl)cc2)=C(O)C1 [Compound 2-13, tertiary-butyl 4-((4-chlorophenyl)carbamothioyl)-5-hydroxy-3-oxo-3,6-dihydropyridine-1 (2H)-carboxylate] | 100% |  |  |
| N#Cc1ccc(N2CC(O)=C(C(=O)Nc3ccc(F)cc3)C(=O)O2)cc1 [Compound 3-1, 2-(4-cyanophenyl)-N-(4-fluorophenyl)-4-hydroxy-6-oxo-3,6-dihydro-2H-1,2-oxazin-5-carboxamide] | 100% |  |  |

Reference: US20250185656A1, “PIPERIDINONE DERIVATIVE OR SALT THEREOF, HARMFUL ORGANISM CONTROL AGENT CONTAINING SAID COMPOUND, AND METHOD FOR USING SAME” (ADEKA Corporation, priority 2022, published 2025)
